In article PMC6084929, “Differential effects of angiotensin II type I receptor blockers on reducing intraocular pressure and TGFβ signaling in the mouse retina” (PLoS ONE, 2018):
pKd: −log10 of the molar value.

Tests used:
C57BL/6J mice [1] = experiment: IOP measurement with Tonolab rebound tonometer in ARB-treated mice; type: in vivo, mouse; conditions: for Change in IOP compared to normal chow control / Rate of IOP reduction compared to control / Average reduction of the median IOP: 2 g/kg in chow; for Change in IOP compared to normal chow control: after 3 and 7 days of treatment; for Rate of IOP reduction compared to control: slope between days 3 and 7; for Median IOP at day 0: before start of chow treatment, by treatment group; for Average reduction of the median IOP: compared to day 0
Protocol: IOP of mice anesthetized with 2.5% isoflurane in oxygen delivered at 1.5 L/min by an inhalation anesthesia system (Vet Equip, Livermore, CA, USA) was measured using a Tonolab rebound tonometer (Icare, Vantaa, Finland) following manufacturer’s recommendations by an operator blinded to the treatment status of the mice. Measurements were performed within 3 mins of immobilization to minimize isoflurane-induced IOP changes and at the same time of day (1:00–3:00 p.m.) to avoid diurnal variation.
(§1) Sample sizes were not pre-determined by statistical methods, but are similar to or exceed numbers typical of similar experiments. The IOP changes of treated mice relative to the IOP changes of normal chow fed mice were presented with mean and 95% confidence interval based on t-statistics. A linear regression model for BP change from baseline was used to study effects of ARBs on BP, adjusting for baseline BP. For comparing IOP in groups of mice untreated or treated with ARBs for 3 and 7 days, a mixed effects model that included baseline IOP, left versus right eye, time of measurement and interaction between time and drug with random effects of intercept and slope within individual mice was used, adjusting for correlation between left and right eye within the same mouse, as well as repeated measurements over time. A one-way ANOVA was used for comparing chow pSmad2 fluorescence of mice untreated or treated with ARBs. The models for BP, IOP, and pSmad2 fluorescence were followed by Dunnett’s method for multiple comparisons correction. Differences in the change in IOP for each drug, relative to change in IOP of normal-fed control were evaluated at day 3 and day 7 of treatment, and differences in the rate of change in IOP were evaluated as the slope of the line defined by relative change at days 3 and 7. Corrected p-values < 0.05 were considered significant. Linear regression and mixed effect model analysis was performed with R 3.4.1 (R Core Team. R: A language and environment for statistical computing. R Foundation for Statistical Computing, Vienna, Austria. URL http://www.R-project.org/, 2013). All other statistical analysis was performed using GraphPad Prism version 7.00 for Windows software (GraphPad Software, La Jolla, CA, USA).

C57BL/6J mice [2] = experiment: Systolic BP by tail-cuff method in ARB-treated mice; type: in vivo, mouse; conditions: 2 g drug/kg chow, day 3; p < 10^-4
Protocol: as §1, with “BP was measured by the tail-cuff method (BP 2000 Blood Pressure Analysis System, Visitech Systems, Apex, NC, USA) according to manufacturer recommendations and as previously described by an operator blinded to the treatment status of the mice. In brief, mice were restrained and their tail placed through an inflatable tail cuff held in place by adhesive tape. […] Mice were conditioned to the system prior to experimental measurements by being subjected to the full recording procedure daily for several days. Acclimation and BP measurements were performed between 9:00 and 11:00 a.m. Since diastolic measurements are inherently inaccurate with this method, only systolic BP is reported here. […] Sample” for “Sample”, “Corrected p-values < 0.05 were considered significant. Linear regression and mixed effect model analysis was performed with R 3.4.1 (R Core Team. R: A language and environment for statistical computing. R Foundation for Statistical Computing, Vienna, Austria. URL http://www.R-project.org/, 2013). All other statistical analysis was performed using GraphPad Prism version 7.00 for Windows software (GraphPad Software, La Jolla, CA, USA).” left out

TGFβ signaling (pSmad2) = experiment: pSmad2 immunohistochemistry of the retina (RGC layer) as read-out of TGFβ signaling; type: in vivo, mouse; conditions: 2 g/kg in chow, 7 days, 3 days
Protocol: Eyes were enucleated and post-fixed in PBS/PFA for an additional 24–48 h and embedded in paraffin. Five micron-thick sections were deparaffinized, incubated at 90°C for 30 mins in 10 mM sodium citrate buffer, pH 6.0 for epitope retrieval and then incubated for 2 h at room temperature in blocking solution (PBS/5% normal donkey serum/1% BSA/0.1% Tween-20). Sections were then incubated with rabbit polyclonal antibody to pSmad2 (1:100, Thermo Fisher Scientific, MA, USA) in blocking solution overnight at 4°C in a humidified chamber. Following three 5 min washes in wash solution (PBS/0.1% Tween-20), sections were incubated in AlexaFluor-546 labeled donkey anti-rabbit IgG diluted 1:1000 in blocking solution for 2 h at room temperature in a dark humidified chamber. Sections were washed again three times for 5 mins each in wash solution and cover-slipped with Prolong Gold Antifade with DAPI mounting medium (Thermo Fisher Scientific). Sections were imaged using a Nikon AZ 100M upright, wide-field microscope using a 5x Plan Fluor/0.5 NA air objective and captured with a Nikon DS-Ri1 color camera (Nikon Instruments, Melville, NY, USA). Retinal images were acquired adjacent to the optic nerve head. Immunostaining and imaging experiments using the right eye of each mouse were carried out in batches of sections that included samples from two vehicle-fed mice and two samples each from losartan, irbesartan and telmisartan-fed mice using identical image acquisition parameters within each batch. Immunostaining and imaging experiments were carried out twice for each batch of samples. Mean fluorescence intensity of pSmad2 immunofluorescence was quantified using FIJI (ImageJ) biological image analysis package. Background-subtracted mean fluorescence intensity of the RGC layer was determined by subtracting the mean background intensity within the adjacent inner plexiform layer from the mean fluorescence intensity within a mask drawn around the RGC layer. Normalized background-subtracted mean fluorescence intensity within each batch of samples was determined by dividing the background-subtracted mean fluorescence intensity of each sample by the average of the background-subtracted mean fluorescence intensities of the two vehicle-fed control samples. For each mouse, normalized background-subtracted mean fluorescence intensity was determined as the average of duplicate experiments and is presented as normalized mean fluorescence.

AT1R = biological target: AT1R; parameters: method as in PMID 20603272; conditions: cited from earlier work
[3] = system: human glaucoma patients with elevated IOP, and normal controls; conditions: 50 mg oral dose; cited from earlier work
[4] = system: rabbit eyes with induced IOP elevation; parameters: method as in PMID 10942157; conditions: eye drops of 0.1% losartan in saline; cited from earlier work
CD1 mice = conditions: cited from earlier work
[5] = system: mouse model of normotensive glaucoma; parameters: method as in PMID 25032856; conditions: cited from earlier work
[6] = system: rat model with IOP elevation; parameters: method as in PMID 19608537; conditions: oral; cited from earlier work
[7] = system: rabbits with experimental and inherited elevated IOP; parameters: method as in PMID 11840352; conditions: cited from earlier work
[8] = system: monkeys with laser-induced IOP elevation; parameters: method as in PMID 15862169; conditions: cited from earlier work
[9] = Solubilization in unbuffered water; type: physicochemical; conditions: attempt to solubilize for drinking water delivery
[10] = parameters: method as in PMID 23487168; conditions: cited from earlier work

Solubility in unbuffered water [9] | SMILES | Change in IOP compared to normal chow control (C57BL/6J mice [1]) | Rate of IOP reduction compared to control (C57BL/6J mice [1]) | Median IOP at day 0 (C57BL/6J mice [1]) | Systolic BP compared to mice fed normal chow (C57BL/6J mice [2]) | Effect on pSmad2 fluorescence of the RGC layer (TGFβ signaling (pSmad2)) | pKd (AT1R) | Average reduction of the median IOP (C57BL/6J mice [1]) [%] | also measured
 | CCCCc1nc(Cl)c(CO)n1Cc1ccc(-c2ccccc2-c2nn[nH]n2)cc1 [losartan, Losartan potassium] | did not significantly lower IOP | no significant effect | 16.9 | significantly lower BP | no significant effect | ~8.00 |  | IOP after losartan treatment (C57BL/6J mice [1]; 1.2 g/L losartan in drinking water, 3 days, 10 female C57BL/6 mice 1 year of age, right eye, mean +/-SD, p = 0.4): 15.4 +/- 1.9 mmHg; Effect on IOP (C57BL/6J mice [1]; 1.2 g/L losartan in drinking water, 3 days, normal mice): did not affect IOP; IOP before losartan treatment (baseline) (C57BL/6J mice [1]; 1.2 g/L losartan in drinking water, 10 female C57BL/6 mice 1 year of age, right eye, mean +/-SD): 14.8 +/-1.4 mmHg; Mean reduction of IOP [3]: ≤ 16%; Effect on IOP [4]: IOP-lowering effects; Effect on IOP (CD1 mice; 0.6 g/L in drinking water, normotensive eyes or eyes with microbead-induced elevated IOP): no effect on IOP; Effect on RGCs (CD1 mice; oral via drinking water, eyes with elevated IOP induced by microbead injection): neuroprotective effect for RGCs
 | CCOc1nc2cccc(C(=O)O)c2n1Cc1ccc(-c2ccccc2-c2nnn[nH]2)cc1 [candesartan] |  |  |  |  |  |  |  | Effect on IOP ([5]; 10 mg/kg/day by oral gavage): no effect on IOP; Effect on RGCs and inner retina ([5]; orally administered): reduced loss of RGCs and thinning of the inner retina; Effect on IOP [6]: did not affect IOP; Effect on RGC loss [6]: reduced RGC loss
 | CCCc1nc(C(C)(C)O)c(C(=O)O)n1Cc1ccc(-c2ccccc2-c2nnn[nH]2)cc1 [olmesartan] |  |  |  |  |  |  |  | Effect on IOP [7]: IOP-lowering effects; Effect on IOP [8]: IOP-lowering effects
readily precipitated out of solution | CCCc1nc2c(C)cc(-c3nc4ccccc4n3C)cc2n1Cc1ccc(-c2ccccc2C(=O)O)cc1 [telmisartan] | significant decreases in IOP | significantly greater than control | 16.7 | significantly lower BP | significantly reduced |  | 13.3 | Reduction of pSmad2 fluorescence in the RGC layer compared to normal fed mice (TGFβ signaling (pSmad2); p = 0.034): 70%; Lipophilicity [10]: most lipophilic ARB
readily precipitated out of solution | CCCCC1=NC2(CCCC2)C(=O)N1Cc1ccc(-c2ccccc2-c2nnn[nH]2)cc1 [irbesartan] | significant decreases in IOP | significantly greater than control | 17.0 | significantly lower BP | no significant effect | ~8.70 | 15.4 | 
